Source: US9079863B2, “Crystalline forms for 5-amino-2,3-dihydrophthalazine-1,4-dione sodium salt, pharmaceutical preparations containing the same and method for the production of said forms” (METRIOPHARM AG, priority 2010, dated 2015)
Where a name gives a salt, the structure may show the parent alone. Read-outs that look alike come from different tables or passages of the source.

How the values were obtained:
[1] = for Endothermous solid phase transformation: 30-300° C. under helium; for Endothermous solid phase transformation / Disintegration temperature: sodium salt; for Disintegration temperature: 30-500° C. in synthetic air (4 N2: 1 O2)
Description: (Table 5). The solid phase transformation of the dihydrate according to U.S. Pat. No. 6,483,326 B1 was measured by means of the simultaneous thermogravimetry-differential thermal analysis with a Linseis L81-077 coupled with mass spectroscopy measurement with a Netzsch STA 449 C thermobalance, with MS and FTIR coupling at 30-300° C. under helium. The disintegration temperatures of forms I-II were determined with the same device at 30-500° C. in synthetic air (4 N2: 1 O2). The data were analyzed with the factory-set software Proteus.

physchem = settings: in water at room temperature, saturated solution
Description: Further, the solubility of the crystalline forms in a saturated solution was determined.

[2] = not infected mice; for Weight development/increase MW: over two days
Description: (§1) In a mouse model of the Gram-positive sepsis (infection with S. pyogenes) the therapeutic usability of the crystal forms I and II of the 5-amino-2,3-dihydrophthalazine-1,4-dione sodium salt was tested. The administration of active ingredient was made parenterally 6 hours after the infection occurred. A second administration of active ingredient was made 24 hours after the first application. The test was completed 48 hours after the infection. For both forms (substance groups) three different doses were used. The mice obtained 2, 20 or 200 μg each of form I or form II per animal and application.
(§2) The individual treatment groups comprised 5 animals each, and for the not infected controls two repetitions and for the infected controls and that groups that contained form II four repetitions were made, so that in total 180 animals were in the test.
It is known that the toxicity of substances in an animal test with growing-up mice or rate can influence the weight development.

[3] = 0.25 g in 10 mL H2O VE, stirring 500 rpm, 25° C., first minutes after addition; sodium salt
Description: The complete dissolution of 0.25 g form I or form II, respectively, in 10 mL H2O VE was achieved under stirring (500 rpm) at 25° C.

[4] = healthy mice, end of the second application day
Excerpt: When administering form I and form II to healthy mice, it was investigated, whether and which influence the application has on certain liver enzymes, in particular the transaminases GOT (AST) and GPT (ALT). Blood taking occurred at the end of the second application day.

S. pyogenes [5] = settings: 48 hours after the infection
Description: as §1, §2
In the sepsis model described in Example 3, the influence the crystal forms II and I of the 5-amino-2,3-dihydrophthalazine-1,4-dione sodium, salt on the probability of survival of the mice infected with S. pyogenes was tested.

S. pyogenes [6] = settings: for Germ load (CFU) Blood MW / Germ load (CFU) Liver MW: 48 hours after the infection, sodium salt
Description: as §1, §2
In the sepsis model described in Example 3, the influence of crystal forms II and I of the 5-amino-2,3-dihydrophthalazine-1,4-dione sodium salt on the germ load of the mice infected with S. pyogenes in blood and liver was tested. The test was completed 48 hours after the infection, and the germ load (CFU) existing at this time in blood and liver was determined (see Table).

[7] = test system: isolated mouse macrophages
Description: For this purpose, the macrophages were first treated with form I (20 or 200 μg/mL). After 1 hour the treated macrophages were stimulated with LPS (10, 100 or 1,000 ng/mL). The supernatants were collected 24 h later, and the concentration of TNF-alpha and IL-6 was measured. Not stimulated macrophages, not stimulated macrophages treated with 200 μg/mL form I and LPS-stimulated macrophages (10, 100 or 1,000 ng/mL LPS) were used as controls.

[8] = healthy mice
Description: as §1
Blood taking occurred after 48 hours at the end of the second application day.

S. pyogenes [9] = settings: for Weight development/increase Total MW / Weight development/increase Day 1 MW: infected mice, sodium salt; for Weight development/increase Total MW: complete test time 48 h, survivors
Description: as §1, §2
In the sepsis model described in Example 3, the influence of crystal forms I and II of the 5-amino-2,3-dihydrophthalazine-1,4-dione sodium salt on the weight development of mice infected with S. pyogenes was tested. The development of the body weight during an acute infection may supply important predictive information.

[10] = 200 μg/mL, not stimulated macrophages (no LPS)
[11] = dose 20 μg, LPS 10 ng/mL, supernatant 24 h
[12] = dose 20 μg, LPS 100 ng/mL, supernatant 24 h
[13] = dose 20 μg, LPS 1 mg/mL, supernatant 24 h
[14] = dose 200 μg, LPS 10 ng/mL, supernatant 24 h
[15] = dose 200 μg, LPS 100 ng/mL, supernatant 24 h
[16] = dose 200 μg, LPS 1 mg/mL, supernatant 24 h

With `Nc1cccc2c(=O)[nH][nH]c(=O)c12` [Dihydrate, 5-amino-2,3-dihydrophthalazine-1,4-dione sodium salt] the “Endothermous solid phase transformation” value ([1]; listed as dihydrate) was 85 °C, the “Endothermous solid phase transformation” value [1] was 85 °C ± 10 °C and the Solubility (physchem; sodium salt) was 168 mg/mL.

For `Nc1cccc2c(=O)[nH][nH]c(=O)c12` [Form I, 5-amino-2,3-dihydrophthalazine-1,4-dione sodium salt], the “Toxicity judged from weight development” value [2] was “do not have any toxicity or at most a very small one”, the “Weight development/increase MW” value ([2]; 2 μg per animal and application, parenteral, sodium salt) was -0.49 g and the “Weight development/increase MW” value ([2]; 20 μg per animal and application, parenteral, sodium salt) was 1.48 g. The “Weight development/increase MW” value ([2]; 200 μg per animal and application, parenteral, sodium salt) was 0.79 g, the “Weight development/increase MW” value ([2]; all doses (total)) was 0.59 g and the Disintegration temperature ([1]; listed as form I) was 335 °C. For the same compound, the Disintegration temperature [1] was 335 °C ± 10 °C, the “Time for which the crystalline form is stable” value ([1]; room temperature (25° C.) and 40° C.) was “at least two” and the “Initial dissolution rate” value [3] was “only retarded reaches its complete equilibrium concentration”. The “Transaminases GOT (AST) and GPT (ALT)” value [4] was “Distinct differences between the groups could not be found”, the “Share of surviving mice” value (S. pyogenes [5]; 2 μg, sodium salt) was 80% and the “Share of surviving mice” value (S. pyogenes [5]; 20 μg) was 80%. The “Share of surviving mice” value (S. pyogenes [5]; 200 μg, sodium salt) was 80%, the “Survival compared to the controls” value (S. pyogenes [5]) was “increase of the share of surviving animals” and the “Share of surviving mice” value (S. pyogenes [5]; all doses (total)) was 80%. For the same compound, the “Germ load (CFU) Blood MW” value (S. pyogenes [6]; 2 μg) was 7.00 log/mL, the “Germ load (CFU) Liver MW” value (S. pyogenes [6]; 2 μg) was 6.56 log/g and the “Germ load (CFU) Blood MW” value (S. pyogenes [6]; 20 μg) was 6.33 log/mL. The “Germ load (CFU) Liver MW” value (S. pyogenes [6]; 20 μg) was 6.57 log/g, the “Germ load (CFU) Blood MW” value (S. pyogenes [6]; 200 μg) was 5.77 log/mL and the “Germ load (CFU) Liver MW” value (S. pyogenes [6]; 200 μg) was 6.09 log/g. The “Germ load (CFU) Blood MW” value (S. pyogenes [6]; all doses (total)) was 6.37 log/mL, the “Germ load (CFU) Liver MW” value (S. pyogenes [6]; all doses (total)) was 6.41 log/g and the “Germ count in the blood compared to the controls” value (S. pyogenes [6]; highest dose) was “tendentious germ count reduction”. The “Immunodepressive effect” value ([7]; 100 ng/5 mL LPS, 200 μg/mL) was “most distinct”, the “Change of TNF-alpha values” ([7]; 1 μg/mL LPS with 200 μg/mL) was “significant reduction” and the “Effect on not stimulated macrophages by TNF-alpha values” ([7]; 200 μg/mL, not stimulated) was “immunostimulating effect”. The “IL-6 MW” value [7, 10] was 0.24 ng/mL, the “TNF-alpha MW” value [7, 10] was 7.98 ng/mL and the “Effect in the combination groups with LPS” value ([7]; all LPS groups) was “dose-dependent, immunodepressive effect”. The “IL-6 MW” value [7, 11] was 6.05 ng/mL, the “TNF-alpha MW” value [7, 11] was 13.27 ng/mL and the “IL-6 MW” value [7, 12] was 19.67 ng/mL. For the same compound, the “TNF-alpha MW” value [7, 12] was 27.17 ng/mL, the “IL-6 MW” value [7, 13] was 22.67 ng/mL and the “TNF-alpha MW” value [7, 13] was 47.91 ng/mL. The “IL-6 MW” value [7, 14] was 7.19 ng/mL, the “TNF-alpha MW” value [7, 14] was 20.74 ng/mL and the “IL-6 MW” value [7, 15] was 10.88 ng/mL. For the same compound, the “TNF-alpha MW” value [7, 15] was 16.47 ng/mL, the “IL-6 MW” value [7, 16] was 15.95 ng/mL and the “TNF-alpha MW” value [7, 16] was 32.53 ng/mL. The “TNF-alpha MW” value ([8]; 2 μg, blood after 48 hours, sodium salt) was 128.8 pg/mL, the “TNF-alpha versus control groups and form II groups” value ([8]; 20 μg dose, p<0.001) was “significantly different” and the “TNF-alpha MW” value ([8]; 20 μg, blood after 48 hours, sodium salt) was 341.8 pg/mL. The “TNF-alpha MW” value ([8]; 200 μg, blood after 48 hours, sodium salt) was 154.1 pg/mL, the “TNF-alpha MW” value ([8]; all doses (total), blood after 48 hours, sodium salt) was 208.2 pg/mL and the “IL-6 increase” value ([8]; blood after 48 hours) was “neither in the substance groups nor in the control groups increases could be found”. For the same compound, the “TNF-alpha increase” value ([8]; compared to the other groups, sodium salt) was “distinct increases”, the “Weight loss compared to control groups” value (S. pyogenes [9]; first 24 hours after the infection) was “lower weight losses” and the “Weight development/increase Total MW” value (S. pyogenes [9]; 2 μg) was -2.41 g. The “Weight development/increase Day 1 MW” value (S. pyogenes [9]; 2 μg) was -0.64 g, the “Weight development/increase Total MW” value (S. pyogenes [9]; 20 μg) was -1.46 g and the “Weight development/increase Day 1 MW” value (S. pyogenes [9]; 20 μg) was -0.09 g. For the same compound, the “Weight development/increase Total MW” value (S. pyogenes [9]; 200 μg) was -1.69 g, the “Weight development/increase Day 1 MW” value (S. pyogenes [9]; 200 μg) was -0.03 g and the “Weight development/increase Total MW” value (S. pyogenes [9]; all doses (total)) was -1.85 g. The “Weight development/increase Day 1 MW” value (S. pyogenes [9]; all doses (total)) was -0.25 g and the Solubility (physchem; water, thermodynamic from solid, Solubility) was 227 mg/mL.
